Data: patent publication US20120264928A1, “THERAPEUTIC PHARMACEUTICAL AGENT FOR DISEASES ASSOCIATED WITH DECREASE IN FUNCTION OF GNE PROTEIN, FOOD COMPOSITION, AND FOOD ADDITIVE” (JAPAN HEALTH SCIENCES FOUNDATION, priority 2009, published 2012)

Columns and labels:
[1] = test system: DMRV model mice; assay: Treadmill test, endurance test; assay type: in vivo; conditions: vs placebo group
Experimental: (§1) 20 mg/kg body weight/day of ManNAc (N=6), NeuAc (N=5), or sialyllactose (N=7) dissolved in drinking water was administered to the DMRV model mice between 11- to 15-week old and 56- to 58-week old for 43 to 45 weeks. 40 mg (N=5) or 400 mg/kg body weight/day (N=4) of Ac4ManNAc dissolved in drinking water was administered to the DMRV model mice of the same ages for 43 to 47 weeks. Drinking water free of the pharmaceutical agents was supplied to mice in a placebo group.
(§2) During the administration of the pharmaceutical agent, the measurement of the body weight, the determination of the survival rate, blood collection (0, 25, and 49 days after the start of administration, and thereafter at intervals of 28 days), and a hanging test (0 and 49 days after the start of administration, and thereafter at intervals of 56 days) were performed at regular intervals. Survivors after the administration (ManNAc-treated group: N=5, NeuAc-treated group: N=5, sialyllactose group: N=6) were subjected to a treadmill test. A muscle tissue was then excised and was subjected to a muscle contraction test, the measurement of the amount of NeuAc, and pathological observation.
(§3) In order to familiarize a mouse with the apparatus, training was started one week prior to testing. In this period, the mouse was made to run on a slope of 7 degrees at a velocity in the range of 5 to 15 m/min for 30 minutes every day for 7 days. As a motor ability test, the velocity was increased by 10 m/min per minute from the initial velocity of 20 m/min. The accumulated running distance up to the point where the mouse could not run anymore was measured. As an endurance test, a mouse was made to run on a slope of 7 degrees at a velocity of 20 m/min for 60 minutes. The mouse was then made to run for another 3 minutes, during which the times of the electrical stimulation given to the mouse by a stimulation grid disposed at the end of the running lane were measured.

[2] = test system: DMRV model mice; assay: Hanging test; assay type: in vivo; conditions: 20 mg/kg body weight/day in drinking water; vs placebo group
Experimental: as §1, §2
A wire net having a 6-mm lattice pattern made of wires having a diameter of approximately 0.5 mm was placed on a tube having a height of 50 cm. A mouse was made to hang on the wire net, and the time elapsed before the mouse fell down was measured. The time was measured three times for each mouse.

[3] = test system: DMRV model mice; assay: Pathological observation of muscle tissue; assay type: in vivo
Experimental: as §1, §2
The gastrocnemius muscle used in the muscle contraction test was frozen in isopentane cooled by liquid nitrogen, and a frozen section having a thickness of 6 μm was prepared with a cryostat. The section was placed on a slide glass. Hematoxylin-eosin (H-E) staining, acid phosphatase activity staining (see Malicdan et al., Method. Enzymol., 453, 379-396, 2009), or Gomori trichrome staining (see Malicdan et al., Method. Enzymol., 453, 379-396, 2009) were performed on adjacent sections. These sections were observed under an optical microscope. A frozen section having a thickness of 10 μm prepared in the same manner as described above was fixed with 4% paraformaldehyde, was stained with congo red, and was observed under a fluorescence microscope.
A frozen section having a thickness of 6 μm prepared in the same manner as described above was fixed with acetone and was blocked with a blocking solution (PBS containing 5% goat normal sera or 2% casein). The section was incubated with an anti-autophagy marker protein LC3 rabbit polyclonal antibody (NB100-2220, Novus Biologicals, 100 times dilution), an anti-β-amyloid rabbit polyclonal antibody (Aβ1-40, AB5074P, Chemicon, 100 times dilution), an anti-β-amyloid rabbit polyclonal antibody (Aβ1-42, AB5078P, Chemicon, 100 times dilution), an anti-phosphorylated tau mouse monoclonal antibody (90206, Innogenetics, 100 times dilution), an anti-amyloid mouse monoclonal antibody (6E10, Covance, 400 times dilution), an anti-p62 protein rabbit polyclonal antibody (PW9860, Biomol, 500 times dilution), or an anti-lysosome-associated membrane protein 2 (Lamp 2) rabbit polyclonal antibody (ABL-93, obtained from Developmental Studies Hybridoma Bank at the University of Iowa, 100 times dilution) at room temperature for one hour. If necessary, Alexa Fluor 488 or 568 labeled anti-rabbit/mouse IgG(H+L) (Molecular Probes) was used as a secondary antibody. Immunostained preparations of these sections were observed under a fluorescence microscope. The congo red staining and the LC3 labeling were performed on adjacent sections.
It is known that rimmed vacuoles found in muscle tissues of a patient suffering from myopathy are positive for acid phosphatase. […] Tau protein is phosphorylated with amyloid β-protein. In myopathy caused by a mutation of the GNE gene, it is known that lysosomal vesicles that contain localized Lamp 2 protein are accumulated. It is also known that p62 protein recognizes polyubiquitin protein and directly binds to LC3 to induce autophagy in a portion that contains accumulated polyubiquitinated protein. In a muscle tissue affected by myopathy, p62 protein is colocalized with amyloid.

[4] = test system: DMRV model mice; assay: Amount of NeuAc in muscle tissue of treated DMRV model mice; assay type: in vivo; conditions: vs placebo group
Experimental: DMRV model mice were GNE^(−/−)hGNED176V-Tg described in Japanese Unexamined Patent Application Publication No. 2007-312641. Healthy litters having no GNE gene mutation were used as controls. The mice in the present example freely take water and feed and ingest 14 mg/kg body weight/day of N-acetylneuraminic acid compound on average.
In the case that the sample was cultured cells, the cells were washed with PBS three times, and 400 p. 1 of 50 mM sulfuric acid was added to the cells. The cells were incubated at 80° C. for 60 minutes and were hydrolyzed to release NeuAc and NeuGc. In the case that the sample was a piece of tissue, the tissue was frozen, was pulverized with an air hammer, and was homogenized in a KCl-tris solution. The precipitate was again washed with the KCl-tris solution and was hydrolyzed in 50 mM sulfuric acid at 80° C. for one hour to release NeuAc and NeuGc. 400 μl of 7 mmol 1,2-diamino-4,5-methylenedioxybenzene, dihydrochloride (MDB, Dojindo Laboratories) solution (15.8 mg MDB, 48.8 mg Na2S2O4, and 735 μl 2-mercaptoethanol were dissolved in distilled water so as to prepare a 10-ml solution) was added to the sample containing free NeuAc and NeuGc and was allowed to react at 60° C. for 2.5 hours. The fluorescent derivative thus prepared was analyzed with HPLC (JASCO Corp.) using 0.05 to 5 nmol/μl Neu5Ac and Neu5Gc standards. The amount of protein from the tissue was measured with a Bio-Rad Protein Assay kit (Bio-Rad Laboratories).
as §1, §2

[5] = test system: DMRV model mice; assay: Treadmill test, motor ability test; assay type: in vivo; conditions: vs placebo group
Experimental: as §1, §2, §3

[6] = in vivo; cited from earlier work
[7] = test system: cells of animals having GNE gene mutation and normal animals; conditions: cited from earlier work
[8] = 20 mg/kg body weight/day in drinking water
[9] = 20 mg/kg body weight/day in drinking water, vs placebo group

Compound | times of electrical stimulation for 3 minutes [1, 8] | hanging time [2] | acid phosphatase activity staining [3, 8] | congo red staining (amyloid) [3, 8] | labeling with the anti-phosphorylated tau antibody [3, 8] | rimmed vacuoles and muscle cell atrophy (H-E staining) [3, 8] | labeling with the anti-amyloid antibodies (LC3, Aβ1-40, and Aβ1-42) [3, 9] | amount of NeuAc in the muscle tissue [4, 8] | accumulated running distance [5, 8] | further results
CC(=O)N[C@H]1[C@H]([C@H](O)[C@H](O)CO)O[C@@](O[C@H]2[C@@H](O)[C@@H](CO)O[C@@H](O[C@H]3[C@H](O)[C@@H](O)C(O)O[C@@H]3CO)[C@@H]2O)(C(=O)O)C[C@@H]1O (stereo partly shown) [sialyllactose, NeuAcα2-3Galβ1-4Glc] | significantly lower | longer | negative | only the placebo group was fluorescently labeled | Only the placebo group was also labeled | no rimmed vacuole or muscle cell atrophy | markedly reduced | significantly higher | significantly higher | –
CC(=O)N[C@H]1[C@H]([C@H](O)[C@H](O)CO)OC(O)(C(=O)O)C[C@@H]1O (stereo partly shown) [NeuAc, N-acetylneuraminic acid] | significantly lower | longer | negative | only the placebo group was fluorescently labeled | Only the placebo group was also labeled | no rimmed vacuole or muscle cell atrophy | markedly reduced | significantly higher | significantly higher | half-life in the blood of animals [6]: very short; incorporation into cells [7]: difficult to incorporate into cells
CC(=O)N[C@@H]1C(O)O[C@H](CO)[C@@H](O)[C@@H]1O (stereo partly shown) [ManNAc, N-acetylmannosamine, reference compound] | significantly lower | longer | negative | only the placebo group was fluorescently labeled | Only the placebo group was also labeled | no rimmed vacuole or muscle cell atrophy | markedly reduced | significantly higher | significantly higher | –
CC(=O)N[C@@H]1C(OC(C)=O)O[C@H](COC(C)=O)[C@@H](OC(C)=O)[C@@H]1OC(C)=O (stereo partly shown) [Ac4ManNAc, Tetra-O-acetyl-N-acetylmannosamine] | – | – | – | – | – | – | – | – | – | times of electrical stimulation for 3 minutes ([1]; 40 mg/kg): significantly lower; times of electrical stimulation for 3 minutes ([1]; 400 mg/kg): significantly lower; Aβ1-42 labeling ([3]; 40 mg/kg): negative; Lamp 2 staining ([3]; 40 mg/kg): very slightly stained; acid phosphatase activity staining ([3]; 40 mg/kg): dispersed sites that were positive; p62 protein labeling ([3]; 40 mg/kg): negative; frequencies of rimmed vacuoles and muscular atrophy ([3]; 40 mg/kg, vs placebo group): much lower; Aβ1-42 labeling ([3]; 400 mg/kg): negative; Lamp 2 staining ([3]; 400 mg/kg): negative; acid phosphatase activity staining ([3]; 400 mg/kg): negative; p62 protein labeling ([3]; 400 mg/kg): negative; rimmed vacuoles and muscle cell atrophy ([3]; 400 mg/kg): no rimmed vacuole or muscle cell atrophy; amount of NeuAc in the muscle tissue ([4]; 400 mg/kg): significantly higher; accumulated running distance ([5]; 400 mg/kg): significantly higher
